Measured values taken from ChEMBL document CHEMBL1268970, “Development of novel inhibitors targeting HIF-1α towards anticancer drug discovery” (Bioorg Med Chem Lett, 2010).
Active and inactive are the calls of the source. The rule behind the calls is not given here.

Experiments:
[1] = target: T1, Hypoxia-inducible factor 1-alpha (Homo sapiens, UniProt Q16665); experiment: Inhibition of HIF1alpha in human U251 cells under normoxic condition by luciferase reporter gene assay; assay type: cell-based, U-251
Target sequence in this assay (Q16665 whole entry): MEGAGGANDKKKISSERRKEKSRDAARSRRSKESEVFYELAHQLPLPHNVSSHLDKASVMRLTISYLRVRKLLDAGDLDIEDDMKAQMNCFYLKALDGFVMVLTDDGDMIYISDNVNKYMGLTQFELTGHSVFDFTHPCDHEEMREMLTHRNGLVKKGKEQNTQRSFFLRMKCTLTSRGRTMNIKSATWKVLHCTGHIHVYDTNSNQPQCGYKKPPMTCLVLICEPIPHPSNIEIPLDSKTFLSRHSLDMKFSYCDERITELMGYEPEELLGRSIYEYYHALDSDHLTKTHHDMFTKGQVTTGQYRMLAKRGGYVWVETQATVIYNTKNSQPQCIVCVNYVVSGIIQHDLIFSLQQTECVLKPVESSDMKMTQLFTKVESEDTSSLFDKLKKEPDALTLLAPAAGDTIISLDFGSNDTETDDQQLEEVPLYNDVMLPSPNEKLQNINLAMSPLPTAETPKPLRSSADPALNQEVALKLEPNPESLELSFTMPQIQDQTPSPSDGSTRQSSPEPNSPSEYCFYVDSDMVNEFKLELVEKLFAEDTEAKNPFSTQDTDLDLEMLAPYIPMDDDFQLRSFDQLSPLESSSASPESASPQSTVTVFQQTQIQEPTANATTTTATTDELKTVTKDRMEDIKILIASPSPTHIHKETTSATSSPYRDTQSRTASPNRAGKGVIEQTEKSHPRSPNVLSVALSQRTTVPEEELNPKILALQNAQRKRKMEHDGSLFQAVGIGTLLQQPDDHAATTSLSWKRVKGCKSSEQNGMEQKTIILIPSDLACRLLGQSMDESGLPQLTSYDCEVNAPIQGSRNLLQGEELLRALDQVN

[2] = target: T1, Hypoxia-inducible factor 1-alpha; experiment: Inhibition of HIF1alpha in human U251 cells under hypoxic condition by luciferase reporter gene assay; assay type: cell-based, U-251
Target sequence in this assay (Q16665 whole entry): as above

OVCAR-3 = experiment: Antiproliferative activity against human OVCAR-3 cells by [3H]thymidine incorporation assay; assay type: functional, cell-based; conditions: OVCAR-3, 3 h
PC-3 [3] = experiment: Inhibition of HIF1alpha expression in human PC3 cells by Western blot analysis; assay type: functional, cell-based
DU-145 = experiment: Antiproliferative activity against human DU145 cells by [3H]thymidine incorporation assay; assay type: functional, cell-based
[4] = Antiproliferative activity against human WI38 cells by [3H]thymidine incorporation assay; assay type: cell-based; conditions: WI-38
U-251 [5] = experiment: Antiproliferative activity against human U251 cells by [3H]thymidine incorporation assay; assay type: functional, cell-based
PC-3 [6] = experiment: Antitumor activity against human PC3 cells xenografted in SCID mouse assessed as tumor growth inhibition at 50 mg/kg, po BID for 19 days measured on day 20; assay type: functional, organism-based; design: dose 50 mg/kg
U-251 [7] = experiment: Inhibition of HIF1alpha expression in human U251 cells by Western blot analysis; assay type: functional, cell-based
PANC-1 = experiment: Antiproliferative activity against human PANC1 cells by [3H]thymidine incorporation assay; assay type: functional, cell-based
PC-3 [8] = experiment: Antiproliferative activity against human PC3 cells by [3H]thymidine incorporation assay; assay type: functional, cell-based
HUVEC = experiment: Antiangiogenic activity in HUVEC assessed as inhibition of tube formation; assay type: functional, cell-based; conditions: Homo sapiens
Mus musculus = experiment: Toxicity in SCID mouse xenografted with human PC3 cells assessed as weight loss at 50 mg/kg, po BID for 19 days measured on day 25; assay type: organism-based, PC-3; design: dose 50 mg/kg, route oral; conditions: in vivo, 456 h
MRC5 = experiment: Antiproliferative activity against human MRC5 cells by [3H]thymidine incorporation assay; assay type: cell-based
[9] = target: T1, Hypoxia-inducible factor 1-alpha; experiment: Inhibition of HIF1-alpha-mediated VEGF mRNA expression in human PC3 cells under hypoxic condition by RT-PCR analysis; assay type: cell-based; conditions: PC-3
Target sequence in this assay (Q16665 whole entry, looked up): as the sequence (Q16665 whole entry) above

HCT-116 = experiment: Antiproliferative activity against human HCT116 cells by [3H]thymidine incorporation assay; assay type: functional, cell-based

SMILES | IC50 [1] [µM] | IC50 [2] [µM] | other results
C=CCOc1nc(-c2ccc(NC(=O)CCl)cn2)nc(C)c1CC | 22 | 1.8 | 
Cc1nc(-c2ccc(N)cn2)nc(O)c1F |  | > 30 | 
C=CCOc1nc(-c2ccc(N)cn2)nc(C)c1Cl |  | > 30 | 
Cc1nc(-c2ccc(N)cn2)nc(O)c1Cl |  | > 30 | 
CC[C@@]1(O)C(=O)OCc2c1cc1n(c2=O)Cc2cc3c(CN(C)C)c(O)ccc3nc2-1 [TOPOTECAN] |  |  | IC50 (DU-145): 1.2 µM; IC50 (U-251 [5]): 0.5 µM; IC50 (PC-3 [8]): 1 µM
C=CCOc1cc(C(F)(F)F)nc(-c2ccc(N)cn2)n1 |  | > 30 | 
Nc1ccc(-c2nc(O)cc(CCl)n2)nc1 | 22 | 6 | 
C=CCOc1nc(-c2ccc(N)cn2)nc(C)c1CC |  | > 30 | 
Cc1nc(-c2ccc(NC(=O)CCl)cn2)nc(O)c1Cc1ccccc1 | 10 | 4 | 
Cc1nc(-c2ccc(N)cn2)nc(O)c1Cc1ccccc1 |  | > 30 | 
CCc1c(C)nc(-c2ccc(N)cn2)nc1O |  | > 30 | 
Cc1nc(-c2ccc(NC(=O)CCl)cn2)[nH]c(=O)c1Cl |  | 5.5 | 
Cc1nc(-c2ccc(N)cn2)nc(O)c1C |  | > 30 | 
Cc1nc(-c2ccc(NC(=O)CCl)cn2)[nH]c(=O)c1F | 6 | 2 | 
C=CCOc1nc(-c2ccc(NC(=O)CCl)cn2)nc(C)c1Cl | 8 | 1.5 | 

Now from value to compound, other results behind:

IC50 [1] [µM] | IC50 [2] [µM] | SMILES | other results
8 | 0.8 | O=C(CCl)Nc1ccc(-c2nc(O)cc(C(F)(F)F)n2)nc1 | IC50 (OVCAR-3): 3.5 µM; inhibition (PC-3 [3]): Dose-dependent effect; IC50 (DU-145): 1.2 µM; IC50 [4]: 6.5 µM; IC50 (U-251 [5]): 1.5 µM; growth inhibition (GI) (PC-3 [6]): Active; inhibition (U-251 [7]): Dose-dependent effect; IC50 (PANC-1): 2 µM; IC50 (PC-3 [8]): 1 µM; inhibition (HUVEC): Dose-dependent effect; Activity (Mus musculus): Non-toxic; IC50 (MRC5): > 10 µM; inhibition [9]: Dose-dependent effect; IC50 (HCT-116): 0.8 µM
15 | 3.5 | COc1cc(C(F)(F)F)nc(-c2ccc(NC(=O)CCl)cn2)n1 | 
 | > 30 | Cc1nc(-c2ccc(NC(=O)CCl)cn2)nc(O)c1C | 
 | 8 | CCOc1cc(C(F)(F)F)nc(-c2ccc(NC(=O)CCl)cn2)n1 | 
5.5 | 1.5 | O=C(CCl)Nc1ccc(-c2nc(O)cc(CCl)n2)nc1 | 
5.5 | 1.5 | CCc1c(C)nc(-c2ccc(NC(=O)CCl)cn2)nc1O | 
30 | 2 | C=CCOc1cc(C(F)(F)F)nc(-c2ccc(NC(=O)CCl)cn2)n1 | 
 | > 30 | O=C(Nc1ccc(-c2nc(O)cc(C(F)(F)F)n2)nc1)C(F)(F)Cl | 
 | > 30 | COc1cc(C(F)(F)F)nc(-c2ccc(N)cn2)n1 | 
10 | 1.4 | O=C(CCl)Nc1ccc(-c2nc(Cl)cc(C(F)(F)F)n2)nc1 | 
 | > 30 | CCOc1cc(C(F)(F)F)nc(-c2ccc(N)cn2)n1 | 
 | > 30 | Nc1ccc(-c2nc(O)cc(C(F)(F)F)n2)nc1 | 
